Results taken from US4361577A, “ω-Nor-cycloalkyl-13,14-dehydro-prostaglandins and process for their preparation” (Carlo Erba - S.p.A., priority 1974, dated 1982).

Tests used:
[1] = biological target: T1, 15-hydroxy-prostaglandin-dehydrogenase (Homo sapiens, UniProt P15428); test: inhibition of 15-hydroxy-prostaglandin-dehydrogenase drawn from human placenta, in vitro; assay type: biochemical
T1 construct: 15-hydroxy-prostaglandin-dehydrogenase drawn from human placenta; from tissue; host or cells: human placenta
T1 sequence (P15428 1-266): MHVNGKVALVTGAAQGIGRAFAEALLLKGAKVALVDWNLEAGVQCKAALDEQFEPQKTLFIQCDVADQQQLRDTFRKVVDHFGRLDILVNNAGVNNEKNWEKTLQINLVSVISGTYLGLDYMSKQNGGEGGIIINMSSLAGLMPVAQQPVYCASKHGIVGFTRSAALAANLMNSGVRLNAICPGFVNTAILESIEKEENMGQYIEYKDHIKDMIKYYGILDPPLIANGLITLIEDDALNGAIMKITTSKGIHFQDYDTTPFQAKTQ
Text: The compounds of formula (I) furthermore inhibit the use of natural prostaglandins as substrate by the enzyme.

guinea pig ileum = guinea pig ileum test (spasmogenic activity); details: relative to PGF2α = 1 (conventional value); in vitro, 35° C., Tyrode solution
Text: (§1) The same compound (13,14-dehydro-17-cyclohexyl-20,19,18-trinor-PGF2α) was compared with PGF2α and with the olefinic analogue 5c,13t-9α,11α,15S-trihydroxy-20,19,18-trinor-17-cyclohexyl-prosta-5,13-dienoic acid (17-cyclohexyl-20,19,18-trinor-PGF2α) in the following in vitro tests: guinea pig ileum test, rat uterus test, rat stomach fundus. The results are reported in the following Table, wherein to the activity of PGF2 the conventional value of 1 was given in all the tests. The three tests relate to the determination of the spasmogenic activity.
The guinea pig ileum test consisted of a 10 ml thermostatic bath held at 35° C., containing the ileum of a male guinea pig, under 0.5 g traction, carboxygenated in a Tyrode solution; this was left for 30 minutes to stabilize before the compounds were tested. The response was recorded using a isotonic frontal lever, long enough to amplify the response 4.5 times.

rat uterus [2] = test: rat uterus test (spasmogenic activity); details: for ratio Uterus/Ileum / ratio Uterus/Stomach Fundus: ratio of activities relative to PGF2α; for ratio Uterus/Ileum: rat uterus / guinea pig ileum; for ratio Uterus/Stomach Fundus: rat uterus / rat stomach fundus; for spasmogenic activity, Rat Uterus: relative to PGF2α = 1 (conventional value), in vitro, 29° C., oestrogenized rat uteri
Text: as §1
The rat uterus test consisted of a 10 ml thermostatic bath held at 29° C., in which oestrogenized rat uteri under 0.5 g traction were carboxygenated in a Dejalon saline solution. The preparation was left to stabilize for 30 minutes before the compounds were tested. Response was measured using a isotonic frontal lever, long enough to amplify the response 4.5 times.

rat stomach fundus = rat stomach fundus test (spasmogenic activity); details: relative to PGF2α = 1 (conventional value); in vitro, male Sprague-Dawley rats
Text: as §1
The rat stomach fundus test was performed in the following manner: male albino rats of the Sprague-Dawley strain weighing 200-250 g were utilized. The stomach fundus strip was prepared according to Vane (J. R. Vane, Brit. J. Pharmacol. 12, 344, (1957)). The strip was suspended in a 10 ml organ bath containing Tyrode solution gassed with a mixture of O2 and CO2 (95:5%). The contractions of the strip were recorded using a isotonic frontal lever as in the preceding tests.

pregnant rat = test: luteolytic activity in the pregnant rat at the 9th-10th day of pregnancy; assay type: in vivo; details: relative to PGF2α = 1 (conventional value)
Text: The action selectivity of the 13,14-dehydro compounds on the miometrium and on the reproductive apparatus is also proven by the remarkable increase of the luteolytic activity in the pregnant rat at the 9th-10th day of pregnancy. In fact, if the conventional value of 1 is given to the luteolytic activity of PGF2α, the value of 30 is to be given to the luteolytic acitivity of 17-cyclohexyl-20,19,18-trinor-PGF2α, and the value of 200 to the luteolytic activity of 13,14-dehydro-17-cyclohexyl-20,19,18-trinor-PGF2α.

rat uterus [3] = test: antagonism of PGF2α on the rat uterus; details: tested against PGF2α

SMILES | Ki ([1]; inhibition with respect to PGE2) [µM] | Ki ([1]; inhibition with respect to PGF2α) [µM] | kind of inhibition ([1]; with respect to PGE2) | kind of inhibition ([1]; with respect to PGF2α) | spasmogenic activity, Guinea Pig Ileum (guinea pig ileum) | ratio Uterus/Ileum (rat uterus [2]) | ratio Uterus/Stomach Fundus (rat uterus [2]) | spasmogenic activity, Rat Uterus (rat uterus [2]) | spasmogenic activity, Rat Stomach Fundus (rat stomach fundus) | luteolytic activity (pregnant rat) | antagonism of PGF2α on the rat uterus (rat uterus [3])
O=C(O)CCCC=CCC1C(O)CC(O)C1C#CC(O)CCC1CCCCC1 (stereo not drawn) [5c-9α,11α,15S-trihydroxy-20,19,18-trinor-17-cyclohexyl-prost-5-en-13-ynoic acid] | 468 | 152 | noncompetitive | partially competitive | 0.17 | 91 | 8 | 15.7 | 1.96 | 200 | able to antagonize PGF2α specifically and selectively
O=C(O)CCCC=CCC1C(O)CC(O)C1C=CC(O)CCC1CCCCC1 (stereo not drawn) [17-cyclohexyl-20,19,18-trinor-PGF2α, 5c,13t-9α,11α,15S-trihydroxy-20,19,18-trinor-17-cyclohexyl-prosta-5,13-dienoic acid] |  |  |  |  | 0.60 | 5.4 | 1.7 | 3.23 | 1.86 | 30 | 
CCCCC[C@H](O)/C=C/[C@@H]1[C@@H](C/C=C\CCCC(=O)O)[C@@H](O)C[C@H]1O [PGF2α] |  |  |  |  |  | 1 | 1 |  |  | 1 | 
